Earlier results as cited in US20130096060A1, “GLP-1 AGONIST FOR USE IN THE TREATMENT OF STENOSIS OR/AND OBSTRUCTION IN THE PANCREATIC DUCT SYSTEM” (priority 2011, published 2013).

Assays:
[1] = system: acinar cells of the guinea pig pancreas; conditions: by interaction with exendin receptors (Raufman, 1996)
[2] = system: acinar cells of the pancreas; conditions: in contrast to exendin-4

Substance	cellular cAMP production [1]	amylase release [2]
exendin-3: peptide of the exendin group, able to lower blood glucose concentrations	stimulate an increase	produces an increase
exendin-4: peptide of the exendin group, 39 AS, SEQ ID NO: 2, able to lower blood glucose concentrations	stimulate an increase	
